Source: PubChem BioAssay (NCI)
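A five-concentration, 48-hour dose response in 96-well plates underlies each endpoint, interpolated linearly between surrounding concentrations. TGI: concentration producing complete growth inhibition.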

Assays:
Assay in all cases: NCI anticancer screen, dose series, 48 h
786-0 renal = tested on: 786-0 renal
A498 renal = tested on: A498 renal
A549 NSCLC = tested on: A549 NSCLC
ACHN renal = tested on: ACHN renal
BT-549 breast = tested on: BT-549 breast
CCRF-CEM leukemia = tested on: CCRF-CEM leukemia
COLO 205 colon = tested on: COLO 205 colon
DU-145 prostate = tested on: DU-145 prostate
EKVX NSCLC = tested on: EKVX NSCLC
HCT-116 colon = tested on: HCT-116 colon
HCT-15 colon = tested on: HCT-15 colon
HL-60(TB) leukemia = tested on: HL-60(TB) leukemia
HOP-62 NSCLC = tested on: HOP-62 NSCLC
HOP-92 NSCLC = tested on: HOP-92 NSCLC
HT29 colon = tested on: HT29 colon
IGROV1 ovarian = tested on: IGROV1 ovarian
K-562 leukemia = tested on: K-562 leukemia
KM12 colon = tested on: KM12 colon
M14 melanoma = tested on: M14 melanoma
MCF7 breast = tested on: MCF7 breast
MDA-MB-435 = tested on: MDA-MB-435
MDA-N = tested on: MDA-N
MOLT-4 leukemia = tested on: MOLT-4 leukemia
NCI-H226 lung = tested on: NCI-H226 lung
NCI-H23 lung = tested on: NCI-H23 lung
NCI-H460 lung = tested on: NCI-H460 lung
NCI/ADR-RES ovarian = tested on: NCI/ADR-RES ovarian
OVCAR-3 ovarian = tested on: OVCAR-3 ovarian
OVCAR-4 ovarian = tested on: OVCAR-4 ovarian
OVCAR-5 ovarian = tested on: OVCAR-5 ovarian
OVCAR-8 ovarian = tested on: OVCAR-8 ovarian
PC-3 prostate = tested on: PC-3 prostate
RPMI-8226 leukemia = tested on: RPMI-8226 leukemia
RXF 393 renal = tested on: RXF 393 renal
SF-295 CNS = tested on: SF-295 CNS
SF-539 CNS = tested on: SF-539 CNS
SK-MEL-2 melanoma = tested on: SK-MEL-2 melanoma
SK-MEL-28 melanoma = tested on: SK-MEL-28 melanoma
SK-OV-3 ovarian = tested on: SK-OV-3 ovarian
SN12C renal = tested on: SN12C renal
SNB-19 CNS = tested on: SNB-19 CNS
SNB-75 CNS = tested on: SNB-75 CNS
SR leukemia = tested on: SR leukemia
SW-620 colon = tested on: SW-620 colon
T-47D breast = tested on: T-47D breast
U251 CNS = tested on: U251 CNS
UACC-257 melanoma = tested on: UACC-257 melanoma
UACC-62 melanoma = tested on: UACC-62 melanoma
UO-31 renal = tested on: UO-31 renal
CAKI-1 renal = tested on: CAKI-1 renal
HCC-2998 colon = tested on: HCC-2998 colon
LOX IMVI melanoma = tested on: LOX IMVI melanoma
MDA-MB-231 breast = tested on: MDA-MB-231 breast
NCI-H522 lung = tested on: NCI-H522 lung
SK-MEL-5 melanoma = tested on: SK-MEL-5 melanoma
TK-10 renal = tested on: TK-10 renal
MALME-3M melanoma = tested on: MALME-3M melanoma
SF-268 CNS = tested on: SF-268 CNS
HS 578T breast = tested on: HS 578T breast

COc1cc(C2c3c(ccc4ccccc34)C(=O)C3CCC(=O)N32)cc(OC)c1O (centres undefined)
TGI (786-0 renal): > 25 µM
TGI (A498 renal): > 25 µM
TGI (A549 NSCLC): > 25 µM
TGI (ACHN renal): > 25 µM
TGI (BT-549 breast): > 25 µM
TGI (CCRF-CEM leukemia): > 25 µM
TGI (COLO 205 colon): > 25 µM
TGI (DU-145 prostate): > 25 µM
TGI (EKVX NSCLC): > 25 µM
TGI (HCT-116 colon): > 25 µM
TGI (HCT-15 colon): > 25 µM
TGI (HL-60(TB) leukemia): > 25 µM
TGI (HOP-62 NSCLC): > 25 µM
TGI (HOP-92 NSCLC): > 25 µM
TGI (HT29 colon): > 25 µM
TGI (IGROV1 ovarian): > 25 µM
TGI (K-562 leukemia): > 25 µM
TGI (KM12 colon): > 25 µM
TGI (M14 melanoma): > 25 µM
TGI (MCF7 breast): > 25 µM
TGI (MDA-MB-435): > 25 µM
TGI (MDA-N): > 25 µM
TGI (MOLT-4 leukemia): > 25 µM
TGI (NCI-H226 lung): > 25 µM
TGI (NCI-H23 lung): > 25 µM
TGI (NCI-H460 lung): > 25 µM
TGI (NCI/ADR-RES ovarian): > 25 µM
TGI (OVCAR-3 ovarian): > 25 µM
TGI (OVCAR-4 ovarian): > 25 µM
TGI (OVCAR-5 ovarian): > 25 µM
TGI (OVCAR-8 ovarian): > 25 µM
TGI (PC-3 prostate): > 25 µM
TGI (RPMI-8226 leukemia): > 25 µM
TGI (RXF 393 renal): > 25 µM
TGI (SF-295 CNS): > 25 µM
TGI (SF-539 CNS): > 25 µM
TGI (SK-MEL-2 melanoma): > 25 µM
TGI (SK-MEL-28 melanoma): > 25 µM
TGI (SK-OV-3 ovarian): > 25 µM
TGI (SN12C renal): > 25 µM
TGI (SNB-19 CNS): > 25 µM
TGI (SNB-75 CNS): > 25 µM
TGI (SR leukemia): > 25 µM
TGI (SW-620 colon): > 25 µM
TGI (T-47D breast): > 25 µM
TGI (U251 CNS): > 25 µM
TGI (UACC-257 melanoma): > 25 µM
TGI (UACC-62 melanoma): > 25 µM
TGI (UO-31 renal): > 25 µM

O=c1c2ccccc2[nH]c2c(Cl)cc(Cl)c(N3CCCCC3)c12
TGI (786-0 renal): > 10 µM
TGI (A498 renal): 81 µM
TGI (A549 NSCLC): > 100 µM
TGI (ACHN renal): 65.7 µM
TGI (BT-549 breast): > 100 µM
TGI (CAKI-1 renal): 97.1 µM
TGI (CCRF-CEM leukemia): > 10 µM
TGI (COLO 205 colon): > 100 µM
TGI (EKVX NSCLC): > 100 µM
TGI (HCC-2998 colon): > 100 µM
TGI (HCT-116 colon): > 100 µM
TGI (HCT-15 colon): > 100 µM
TGI (HL-60(TB) leukemia): 74.7 µM
TGI (HOP-62 NSCLC): > 100 µM
TGI (HT29 colon): 32.6 µM
TGI (IGROV1 ovarian): 48.2 µM
TGI (K-562 leukemia): > 10 µM
TGI (KM12 colon): 54.9 µM
TGI (LOX IMVI melanoma): > 100 µM
TGI (M14 melanoma): 88.9 µM
TGI (MCF7 breast): > 100 µM
TGI (MDA-MB-231 breast): > 100 µM
TGI (MDA-MB-435): 55.8 µM
TGI (MDA-N): 63.1 µM
TGI (MOLT-4 leukemia): > 100 µM
TGI (NCI-H226 lung): 62 µM
TGI (NCI-H23 lung): 76.5 µM
TGI (NCI-H522 lung): 64.3 µM
TGI (NCI/ADR-RES ovarian): 83.4 µM
TGI (OVCAR-3 ovarian): > 100 µM
TGI (OVCAR-4 ovarian): > 100 µM
TGI (OVCAR-5 ovarian): > 100 µM
TGI (OVCAR-8 ovarian): > 100 µM
TGI (PC-3 prostate): > 100 µM
TGI (RPMI-8226 leukemia): > 100 µM
TGI (SF-295 CNS): > 100 µM
TGI (SF-539 CNS): 46.6 µM
TGI (SK-MEL-2 melanoma): 59.1 µM
TGI (SK-MEL-28 melanoma): > 100 µM
TGI (SK-MEL-5 melanoma): > 100 µM
TGI (SK-OV-3 ovarian): > 100 µM
TGI (SN12C renal): 55.8 µM
TGI (SNB-19 CNS): 77.9 µM
TGI (SNB-75 CNS): > 100 µM
TGI (SR leukemia): > 100 µM
TGI (SW-620 colon): 84.8 µM
TGI (T-47D breast): > 100 µM
TGI (TK-10 renal): > 100 µM
TGI (U251 CNS): 62.4 µM
TGI (UACC-257 melanoma): > 100 µM
TGI (UACC-62 melanoma): > 10 µM
TGI (UO-31 renal): 55.5 µM

O=P(O)(CN1CCN(CP(=O)(O)c2ccccc2)CCN(CP(=O)(O)c2ccccc2)CC1)c1ccccc1
TGI (786-0 renal): > 100 µM
TGI (A498 renal): 88.6 µM
TGI (A549 NSCLC): > 100 µM
TGI (ACHN renal): > 100 µM
TGI (BT-549 breast): > 100 µM
TGI (CAKI-1 renal): > 100 µM
TGI (CCRF-CEM leukemia): > 100 µM
TGI (COLO 205 colon): > 100 µM
TGI (DU-145 prostate): > 100 µM
TGI (EKVX NSCLC): > 100 µM
TGI (HCC-2998 colon): > 100 µM
TGI (HCT-116 colon): > 100 µM
TGI (HL-60(TB) leukemia): > 100 µM
TGI (HOP-62 NSCLC): > 100 µM
TGI (HT29 colon): > 100 µM
TGI (IGROV1 ovarian): > 100 µM
TGI (K-562 leukemia): > 100 µM
TGI (KM12 colon): > 100 µM
TGI (LOX IMVI melanoma): > 100 µM
TGI (MALME-3M melanoma): > 100 µM
TGI (MCF7 breast): > 100 µM
TGI (MDA-MB-435): > 100 µM
TGI (MDA-N): > 100 µM
TGI (MOLT-4 leukemia): > 100 µM
TGI (NCI-H226 lung): > 100 µM
TGI (NCI-H23 lung): > 100 µM
TGI (NCI-H460 lung): > 100 µM
TGI (NCI/ADR-RES ovarian): > 100 µM
TGI (OVCAR-3 ovarian): > 100 µM
TGI (OVCAR-4 ovarian): > 100 µM
TGI (OVCAR-5 ovarian): > 100 µM
TGI (OVCAR-8 ovarian): > 100 µM
TGI (RPMI-8226 leukemia): > 100 µM
TGI (RXF 393 renal): > 100 µM
TGI (SF-268 CNS): > 100 µM
TGI (SF-295 CNS): > 100 µM
TGI (SF-539 CNS): > 100 µM
TGI (SK-MEL-28 melanoma): > 100 µM
TGI (SK-MEL-5 melanoma): > 100 µM
TGI (SK-OV-3 ovarian): > 100 µM
TGI (SNB-19 CNS): > 100 µM
TGI (SNB-75 CNS): > 100 µM
TGI (SW-620 colon): > 100 µM
TGI (T-47D breast): > 100 µM
TGI (TK-10 renal): > 100 µM
TGI (U251 CNS): > 100 µM
TGI (UO-31 renal): > 100 µM

CCOC(=O)C(OP(=O)(OCC)OCC)C(F)(F)F (centres undefined)
TGI (A498 renal): > 100 µM
TGI (ACHN renal): > 100 µM
TGI (BT-549 breast): > 100 µM
TGI (CCRF-CEM leukemia): > 100 µM
TGI (DU-145 prostate): > 100 µM
TGI (EKVX NSCLC): > 100 µM
TGI (HCC-2998 colon): > 100 µM
TGI (HCT-116 colon): > 100 µM
TGI (HCT-15 colon): > 100 µM
TGI (HL-60(TB) leukemia): > 100 µM
TGI (HOP-62 NSCLC): > 100 µM
TGI (HS 578T breast): > 100 µM
TGI (HT29 colon): > 100 µM
TGI (K-562 leukemia): > 100 µM
TGI (KM12 colon): > 100 µM
TGI (LOX IMVI melanoma): > 100 µM
TGI (M14 melanoma): > 100 µM
TGI (MALME-3M melanoma): > 100 µM
TGI (MCF7 breast): > 100 µM
TGI (MDA-MB-231 breast): > 100 µM
TGI (MDA-MB-435): > 100 µM
TGI (MDA-N): > 100 µM
TGI (MOLT-4 leukemia): > 100 µM
TGI (NCI-H226 lung): > 100 µM
TGI (NCI-H23 lung): > 100 µM
TGI (NCI-H460 lung): > 100 µM
TGI (NCI-H522 lung): > 100 µM
TGI (OVCAR-3 ovarian): > 100 µM
TGI (OVCAR-5 ovarian): > 100 µM
TGI (RPMI-8226 leukemia): > 100 µM
TGI (RXF 393 renal): > 100 µM
TGI (SF-268 CNS): > 100 µM
TGI (SF-539 CNS): > 100 µM
TGI (SK-MEL-2 melanoma): > 100 µM
TGI (SK-MEL-28 melanoma): > 100 µM
TGI (SK-OV-3 ovarian): > 100 µM
TGI (SN12C renal): > 100 µM
TGI (SNB-19 CNS): > 100 µM
TGI (SNB-75 CNS): > 100 µM
TGI (SR leukemia): > 100 µM
TGI (T-47D breast): > 100 µM
TGI (TK-10 renal): > 100 µM
TGI (U251 CNS): > 100 µM
TGI (UACC-257 melanoma): > 100 µM
TGI (UACC-62 melanoma): > 100 µM
TGI (UO-31 renal): > 100 µM
